# Values quoted from earlier work in patent US7838561B2, “Method for preventing or treating cardiac hypertrophy” (Wisconsin Alumni Research Foundation, priority 2004, dated 2010).
# Entries after “also recorded” stand apart in the source; their conditions may differ. Where two headings read alike, the source gives them in different places.
# What was measured:
# RARγ [1] = target: T1, RARγ (Homo sapiens, UniProt P13631)
# T1 sequence (P13631 1-454): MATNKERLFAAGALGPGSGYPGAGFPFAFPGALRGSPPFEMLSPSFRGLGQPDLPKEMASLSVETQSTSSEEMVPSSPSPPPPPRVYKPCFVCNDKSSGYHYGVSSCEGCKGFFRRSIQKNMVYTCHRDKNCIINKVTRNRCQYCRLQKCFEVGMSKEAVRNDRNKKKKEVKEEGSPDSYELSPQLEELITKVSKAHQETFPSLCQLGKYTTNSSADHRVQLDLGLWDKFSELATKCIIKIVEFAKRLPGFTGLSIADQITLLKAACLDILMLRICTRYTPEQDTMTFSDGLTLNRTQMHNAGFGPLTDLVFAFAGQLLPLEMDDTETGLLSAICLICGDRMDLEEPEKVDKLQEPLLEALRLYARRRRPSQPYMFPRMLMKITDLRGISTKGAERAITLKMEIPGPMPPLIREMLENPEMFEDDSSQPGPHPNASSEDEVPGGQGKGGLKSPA
# [2] = system: human cervical cancer cell line ECE16-1
# RARα [3] = target: T2, RARα (Homo sapiens, UniProt P10276)
# T2 sequence (P10276 1-462): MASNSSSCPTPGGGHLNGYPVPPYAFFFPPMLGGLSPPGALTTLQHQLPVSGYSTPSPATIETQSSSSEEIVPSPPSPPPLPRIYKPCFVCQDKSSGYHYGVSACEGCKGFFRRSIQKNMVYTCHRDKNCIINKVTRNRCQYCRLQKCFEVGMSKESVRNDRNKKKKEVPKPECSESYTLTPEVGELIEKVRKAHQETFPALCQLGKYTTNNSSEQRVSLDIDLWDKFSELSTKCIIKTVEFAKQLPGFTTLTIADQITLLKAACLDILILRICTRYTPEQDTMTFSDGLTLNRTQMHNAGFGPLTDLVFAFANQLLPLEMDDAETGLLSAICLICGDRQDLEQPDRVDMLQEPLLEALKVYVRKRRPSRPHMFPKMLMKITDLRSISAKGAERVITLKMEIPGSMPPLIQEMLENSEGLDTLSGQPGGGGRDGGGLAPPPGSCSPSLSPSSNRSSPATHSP
# RARβ [4] = target: T3, RARβ (Homo sapiens, UniProt P10826)
# T3 sequence (P10826 1-455): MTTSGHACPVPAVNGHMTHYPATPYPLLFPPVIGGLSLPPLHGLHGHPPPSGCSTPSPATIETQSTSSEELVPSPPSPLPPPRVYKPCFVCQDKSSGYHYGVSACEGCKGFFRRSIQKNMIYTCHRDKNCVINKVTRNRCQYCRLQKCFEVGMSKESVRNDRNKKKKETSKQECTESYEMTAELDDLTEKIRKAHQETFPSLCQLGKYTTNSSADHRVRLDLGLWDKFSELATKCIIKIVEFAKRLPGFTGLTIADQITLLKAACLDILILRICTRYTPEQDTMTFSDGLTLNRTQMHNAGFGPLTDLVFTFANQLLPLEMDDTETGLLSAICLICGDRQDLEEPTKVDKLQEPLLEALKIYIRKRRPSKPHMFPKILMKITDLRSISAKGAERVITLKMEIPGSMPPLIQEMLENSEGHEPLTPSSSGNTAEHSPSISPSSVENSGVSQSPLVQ
# RARs [5] = system: RARs
# [6] = topical, 0, 1.44, 7.2, 36.0 μmol/kg/day, mice
# [7] = system: mouse limb bud chondrocytes
# [8] = system: bone marrow granulocytic precursors; conditions: oral, 0.5 mg/kg/day for 10 days, mice
# [9] = system: prostate carcinoma cell lines
# RARα [10] = target: T2, RARα; remark: listed apart in the source
# RARγ [11] = target: T1, RARγ; remark: listed apart in the source
# RARβ [12] = target: T3, RARβ; remark: listed apart in the source
# [13] = system: acute promyelocytic leukemia; conditions: RA triggers differentiation
# [14] = in vivo
# [15] = system: nuclear retinoid receptors
# RBP = RBP (Homo sapiens, UniProt P02753)
# [16] = ip, 15 mg/kg/d
# [17] = system: rabbit HIG-82 synovial fibroblasts; conditions: 0.01 to 10 μM
# testicular cells [18] = system: testicular cells
# testicular cells [19] = conditions: rabbits, 2, 10, 50 mg/kg orally for 1 wk
# [20] = system: gastrulation-stage zebrafish embryo
# mammary epithelial cell = conditions: 1 μM
# [21] = 20 mg/kg/day, 7 days, subcutaneous, rats
# RARs [22] = conditions: in vitro
compound,measurement,setting,value
Cc1ccc(C2=CCC(C)(C)c3ccc(C#Cc4ccc(C(=O)O)cc4)cc32)cc1 [AGN 193109],Kd,RARγ [1],0.007 µM
same,partial agonist activity,[2],did not have partial agonist activity
same,"retinoid-mediated activities (proliferation, keratin & RARβ gene expression)","[2]; 10 nM, 100 nM",suppresses retinoid-mediated activities
same,Kd,RARα [3],0.016 µM
same,hormone action of RA in skin,"later in development, single oral dose of 100 mg/kg",suppresses the hormone action of RA in skin
same,placental transfer,pregnant mouse,readily crosses the placenta
same,antagonism of retinoid-specific events in craniofacial development,"pregnant mouse, 1 mg/kg single oral dose",sufficient to antagonize retinoid-specific events in craniofacial development
same,Kd,RARβ [4],0.007 µM
same,Receptor Specificity,RARs [5],pan-RAR antagonist; also recorded: RARαβγ
same,"effect on TTNPB toxicity (cutaneous irritation, weight loss, mortality)",[6],counteracts the toxicity symptoms
Cc1ccc(C2=CC(C)(C)Oc3c(Br)cc(C(=O)Nc4ccc(C(=O)O)c(F)c4)cc32)cc1 [AGN 194301],Kd,RARγ [1],7.25 µM
same,Kd,RARα [3],0.003 µM
same,Kd,RARβ [4],0.32 µM
same,"differentiation of limb bud chondrocytes, Sox9 induction",[7]; 1 μM,overcome RA signaling and permit the differentiation of mouse limb bud chondrocytes
same,Receptor Specificity,RARs [5],RARα
CCc1ccc(C2=CC(C)(C)Sc3ccc(C#Cc4ccc(C(=O)O)cc4)cc32)cc1 [AGN 194310],Kd,RARγ [1],0.005 µM
same,frequency of bone marrow granulocytic precursors,[8],sufficient to elevate the frequency of bone marrow granulocytic precursors
same,signs of ill health or abnormal pathology,[8],did not show signs of ill health or abnormal pathology
same,Kd,RARα [3],0.003 µM
same,Kd,RARβ [4],0.002 µM
same,"differentiation of limb bud chondrocytes, Sox9 induction",[7]; 50 nM,overcome RA signaling and permit the differentiation of mouse limb bud chondrocytes
same,Receptor Specificity,RARs [5],pan-RAR antagonist; also recorded: RARαβγ
same,potency relative to all-trans-retinoic acid,[9],12-22 times
CC1=C(/C=C/C(C)=C/C=C/C(C)=C/C(=O)O)C(C)(C)CCC1 [All-trans-retinoic acid],Receptor Specificity,RARs [5],RARαβγ
CC1(C)CC=C(c2cnc3ccccc3c2)c2cc(C(=O)Nc3ccc(C(=O)O)cc3)ccc21 [BMS 614],RARγ Kd,RARγ [1],not bound
same,Kd,RARα [3],0.0025 µM
same,agonist or antagonist action at RARα,RARα [10],antagonist
same,molar excess to RA at which RARα transactivation is antagonised,RARα [10],100 fold
same,antagonism of RARγ transactivation,RARγ [11],no antagonism
same,RARβ Kd,RARβ [4],not bound
same,antagonism of RARβ transactivation,RARβ [12],at best modestly
same,Receptor Specificity,RARs [5],RARα
CC1(C)CC=C(c2ccccc2)c2cc(C(=O)Nc3ccc(C(=O)O)cc3)ccc21 [BMS 185411],Kd,RARγ [1],~20 µM
same,activity in the acute promyelocytic leukemia assay,[13],no activity
same,Kd,RARα [3],~0.15 µM
same,agonist or antagonist action at RARα,RARα [10],antagonist
same,agonist or antagonist action at RARγ,RARγ [11],weak agonist
same,Kd,RARβ [4],~1.3 µM
same,agonist or antagonist action at RARβ,RARβ [12],agonist
same,Receptor Specificity,RARs [5],RARα
O=C(O)c1ccc2cc(-c3ccc(O)c(C45CC6CC(CC(C6)C4)C5)c3)ccc2c1 [CD437],binding to RARs and RXRs,RAR and RXR,weakly bind
"CC1=C(/C=C/C(C)=C/C=C/C(C)=C/C(=O)Nc2ccc(O)cc2)C(C)(C)CCC1 [Fenretinide, N-[4-hydroxyphenyl]retinamide]",concentrations of vitamin A and RBP in the bloodstream,[14],lower the concentrations of both vitamin A and retinol binding protein (RBP)
same,symptoms of vitamin A insufficiency,[14],impaired dark vision adaptation and epithelial keratosis
same,trans-activation of the nuclear retinoid receptors,[15],poorly trans-activates the nuclear retinoid receptors
same,binding to RARs and RXRs,RAR and RXR,weakly bind
same,binding to RARs and RXRs,RAR and RXR; listed as 4-hydroxphenylretinamide,weakly
same,binding to RBP and effect on RBP-TTR,RBP,"binds to RBP, displacing RBP from transthyretin (TTR)"
CCCCCCCOc1cc2c(cc1/C(C)=C/c1ccc(C(=O)O)cc1)C(C)(C)CCS2(=O)=O [Ro 41-5253],Kd,RARγ [1],3.3 µM
same,Kd,RARα [3],0.06 µM
same,Kd,RARβ [4],2.4 µM
same,Receptor Specificity,RARs [5],RARα
CCCCCCCOc1cc2c(cc1/C(C)=C/C=C/C(C)=C/C(=O)O)C(C)(C)CCS2(=O)=O [Ro 46-5471],Kd,RARγ [1],0.24 µM
same,Kd,RARα [3],0.027 µM
same,Kd,RARβ [4],5.1 µM
same,Receptor Specificity,RARs [5],RARα
BMS 189453,overt toxicity or hypovitaminosis A,[16],not observed
same,inflammation and joint erosion,"[16]; mouse and rat, two models","delayed the onset, severity, and progression of inflammation and joint erosion"
same,Kd,RARγ [1],~0.02 µM
same,gene expression of pro-inflammatory collagenase,[17],suppresses gene expression of pro-inflammatory collagenase
same,overt toxicity,"testicular cells [18]; 2, 10, 50 mg/kg doses",not overtly toxic
same,testicular atrophy after ceasing treatment,"testicular cells [18]; 30 days after ceasing treatment, 2-50 mg/kg",testicular atrophy was seen at even low doses
same,overt toxicity,"testicular cells [18]; rats, 240 mg/kg daily for 30 days",Overt toxicity was observed
same,testicular toxicity,"testicular cells [18]; rats, 2, 10, 50 mg/kg for 1, 3, 7 days",caused the atrophy and degeneration of testicular cells
same,testicular toxicity,testicular cells [19],caused the atrophy and degeneration of testicular cells
same,Kd,RARα [3],~0.015 µM
same,AP-1 activity,AP-1,represses AP-1 activity
same,agonist or antagonist action at RARα,RARα [10],antagonist
same,agonist or antagonist action at RARγ,RARγ [11],antagonist
same,effect on myocardiogenesis,[20],suppress myocardiogenesis
same,mammary epithelial cell growth,mammary epithelial cell,inhibits mammary epithelial cell growth
same,progression of experimental glomerulonephritis,[21],reduce the progression of experimental glomerulonephritis
same,"toxicity (eating or drinking, posturing or behavior, weight loss)",[21],did not show toxicity
same,transactivation of the RARs,RARs [22],does not transactivate the RARs
same,agonist or antagonist action at RARβ,RARβ [12],weak RARβ agonist
same,Receptor Specificity,RARs [5],RARαγ
